Assay results taken from ChEMBL document CHEMBL2331247, “Anti-inflammatory norditerpenoids from the soft coral Sinularia maxima” (Bioorg Med Chem Lett, 2013).
pIC50: −log10 of the molar value.

Experiments:
Assay type in all cases: functional
[1] = Antiinflammatory activity against in C57BL/6 mouse BMDC assessed as inhibition of LPS-stimulated TNFalpha production compound pre-incubated for 1 hr before LPS challenge by ELISA
[2] = Antiinflammatory activity against in C57BL/6 mouse BMDC assessed as inhibition of LPS-stimulated IL6 production compound pre-incubated for 1 hr before LPS challenge by ELISA
[3] = Antiinflammatory activity against in C57BL/6 mouse BMDC assessed as inhibition of LPS-stimulated IL12 production compound pre-incubated for 1 hr before LPS challenge by ELISA

SMILES	pIC50 [1]	pIC50 [2]	pIC50 [3]
C=C(C)[C@@H]1CC(=O)C[C@@H]2O[C@](C)(CC2=O)C[C@@H]2C=C(C(=O)O2)[C@H](OC)C1	< 4.00	4.88	5.28
C=C(C)[C@@H]1CC(=O)CC2=C(C1)[C@@H]1C(=O)O[C@@H]3C[C@](C)(O)[C@H](C2=O)[C@H]13 [SCABROLIDE A]	< 4.00	4.16	4.63
C=C(C)[C@@H]1CC(=O)[C@H]2[C@H](C1)[C@@H]1C(=O)O[C@@H]3C[C@@]4(C)O[C@H]2C(=O)[C@@H]4[C@H]13 [INELEGANOLIDE]	< 4.00	< 4.00	< 4.00
C[S+]([O-])c1ccc(-c2nc(-c3ccc(F)cc3)c(-c3ccncc3)[nH]2)cc1 (centres undefined) [SB-203580]	5.13	5.45	5.25

Second part, the compound after the results:

pIC50 [1]	pIC50 [2]	pIC50 [3]	SMILES
< 4.00	< 4.00	< 4.00	C=C(C)[C@@H]1CC(=O)CC2=C(C1)[C@@H]1C(=O)O[C@@H]3CC(C)=C(C2=O)[C@H]13 [YONAROLIDE]
< 4.00	< 4.00	< 4.00	C=C(C)[C@H]1C/C=C(\C(=O)OC)CC(=O)C[C@@]2(C)CC(=O)[C@@H](CC(=O)C1)O2 [NORCEMBRENE 5]
< 4.00	< 4.00	< 4.00	C=C(C)[C@H]1CCC2=C[C@@H](C[C@@]3(C)CC(=O)[C@H](CC(=O)C1)O3)OC2=O
< 4.00	< 4.00	< 4.00	C=C(C)[C@@H]1CC(=O)CC2=C(C1)[C@]1(O)C(=O)O[C@@H]3C[C@](C)(O)[C@H](C2=O)[C@@H]31
